{"source": "ChEMBL document CHEMBL4177646", "about": "“Discovery of novel nitroimidazole enols as Pseudomonas aeruginosa DNA cleavage agents” (Bioorg Med Chem, 2017)", "key": {"[1]": {"system": "Pseudomonas aeruginosa", "assay": "Antibacterial activity against drug-resistant Pseudomonas aeruginosa after 24 hrs by micro broth dilution method", "format": "functional"}, "[2]": {"target": "T1, Albumin (Homo sapiens, UniProt P02768)", "T1 sequence (P02768 whole entry)": "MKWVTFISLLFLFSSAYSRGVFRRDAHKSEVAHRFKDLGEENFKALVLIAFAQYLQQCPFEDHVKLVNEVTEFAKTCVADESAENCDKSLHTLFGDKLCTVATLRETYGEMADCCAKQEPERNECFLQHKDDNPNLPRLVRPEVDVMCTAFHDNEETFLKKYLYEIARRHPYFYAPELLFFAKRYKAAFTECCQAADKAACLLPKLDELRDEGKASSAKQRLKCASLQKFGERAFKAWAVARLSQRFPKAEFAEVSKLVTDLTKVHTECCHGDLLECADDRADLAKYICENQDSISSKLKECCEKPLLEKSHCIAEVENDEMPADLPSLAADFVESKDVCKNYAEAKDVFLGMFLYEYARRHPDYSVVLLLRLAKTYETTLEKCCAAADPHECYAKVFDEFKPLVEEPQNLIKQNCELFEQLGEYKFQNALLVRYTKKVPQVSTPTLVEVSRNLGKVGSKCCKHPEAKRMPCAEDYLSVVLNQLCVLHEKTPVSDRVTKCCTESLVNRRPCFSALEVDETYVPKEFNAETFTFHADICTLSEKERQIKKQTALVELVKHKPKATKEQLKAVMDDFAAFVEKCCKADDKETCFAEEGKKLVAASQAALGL", "assay": "Binding affinity to HSA assessed as modified Stern-Volmer quenching constant at pH 7.4 at 290 K by fluorescence assay", "format": "ADME", "settings": "isolated protein"}, "[3]": {"target": "T1, Albumin", "assay": "Binding affinity to HSA assessed as biomolecular quenching rate constant at pH 7.4 at 300 K by fluorescence assay", "format": "ADME", "settings": "isolated protein"}, "[4]": {"system": "Candida albicans", "assay": "Antifungal activity against Candida albicans ATCC 90023 after 24 hrs by micro broth dilution method", "format": "functional", "settings": "ATCC 90023, 24 h"}, "[5]": {"target": "T1, Albumin", "assay": "Binding affinity to HSA assessed as biomolecular quenching rate constant at pH 7.4 at 290 K by fluorescence assay", "format": "ADME", "settings": "isolated protein"}, "[6]": {"system": "Escherichia coli", "assay": "Antibacterial activity against Escherichia coli ATCC 25922 after 24 hrs by micro broth dilution method", "format": "functional", "settings": "ATCC 25922, 24 h"}, "[7]": {"target": "T1, Albumin", "assay": "Binding affinity to HSA assessed as biomolecular quenching rate constant at pH 7.4 at 313 K by fluorescence assay", "format": "ADME", "settings": "isolated protein"}, "[8]": {"system": "Staphylococcus aureus", "assay": "Antibacterial activity against methicillin-resistant Staphylococcus aureus N315 after 24 hrs by micro broth dilution method", "format": "functional", "settings": "N315, 24 h"}, "[9]": {"system": "Candida tropicalis", "assay": "Antifungal activity against Candida tropicalis after 24 hrs by micro broth dilution method", "format": "functional"}, "[10]": {"system": "Candida albicans", "assay": "Antifungal activity against drug-resistant Candida albicans after 24 hrs by micro broth dilution method", "format": "functional"}, "[11]": {"system": "DNA", "assay": "Binding affinity to sensitive Pseudomonas aeruginosa DNA assessed as hypochromic effect at 3.81 x 10^-6mol/L by neutral red dye based UV-vis spectroscopic method", "format": "nucleic-acid assay"}, "[12]": {"system": "Pseudomonas aeruginosa", "assay": "Antibacterial activity against Pseudomonas aeruginosa ATCC 27853 after 24 hrs by micro broth dilution method", "format": "functional", "settings": "ATCC 27853, 24 h"}, "[13]": {"system": "DNA", "assay": "Binding affinity to sensitive Pseudomonas aeruginosa DNA assessed as hypochromic effect by neutral red dye based UV-vis spectroscopic method", "format": "nucleic-acid assay"}, "[14]": {"system": "Staphylococcus aureus", "assay": "Antibacterial activity against Staphylococcus aureus ATCC 25923 after 24 hrs by micro broth dilution method", "format": "functional", "settings": "ATCC 25923, 24 h"}, "[15]": {"system": "Pseudomonas aeruginosa", "assay": "Bactericidal activity against drug sensitive Pseudomonas aeruginosa assessed as bacterial load at 4 times MIC after 210 mins by time-kill assay (reference value: 3.2 10^9 CFU/ml)", "format": "functional"}, "[16]": {"target": "T1, Albumin", "assay": "Binding affinity to HSA assessed as equilibrium binding constant at pH 7.4 at 313 K by scatchard assay", "format": "ADME", "settings": "isolated protein"}, "[17]": {"system": "Pseudomonas aeruginosa", "assay": "Bactericidal activity against drug sensitive Pseudomonas aeruginosa assessed as bacterial load at 4 times MIC after 150 mins by time-kill assay (reference value: 4.3 10^6 CFU/ml)", "format": "functional"}, "[18]": {"system": "Candida tropicalis", "assay": "Potency index, ratio of fluconazole MIC to compound MIC for Candida tropicalis", "format": "functional"}, "[19]": {"target": "T1, Albumin", "assay": "Binding affinity to HSA assessed as equilibrium binding constant at pH 7.4 at 290 K by scatchard assay", "format": "ADME", "settings": "isolated protein"}, "[20]": {"target": "T1, Albumin", "assay": "Binding affinity to HSA assessed as equilibrium binding constant at pH 7.4 at 300 K by scatchard assay", "format": "ADME", "settings": "isolated protein"}, "[21]": {"system": "Pseudomonas aeruginosa", "assay": "Bactericidal activity against drug sensitive Pseudomonas aeruginosa assessed as bacterial load at 4 times MIC after 240 mins by time-kill assay (reference value: 1.1 10^10 CFU/ml)", "format": "functional"}, "[22]": {"target": "T1, Albumin", "assay": "Binding affinity to HSA assessed as Stern-Volmer quenching constant at pH 7.4 at 313 K by fluorescence assay", "format": "ADME", "settings": "isolated protein"}, "[23]": {"target": "T1, Albumin", "assay": "Binding affinity to HSA assessed as Stern-Volmer quenching constant at pH 7.4 at 290 K by fluorescence assay", "format": "ADME", "settings": "isolated protein"}, "[24]": {"system": "Staphylococcus aureus", "assay": "Antibacterial activity against drug-resistant Staphylococcus aureus after 24 hrs by micro broth dilution method", "format": "functional"}, "[25]": {"system": "Pseudomonas aeruginosa", "assay": "Bactericidal activity against drug sensitive Pseudomonas aeruginosa assessed as log reduction in bacterial load at 4 times MIC after 120 mins by time-kill assay", "format": "functional"}, "[26]": {"system": "Pseudomonas aeruginosa", "assay": "Bactericidal activity against drug sensitive Pseudomonas aeruginosa assessed as bacterial load at 4 times MIC after 180 mins by time-kill assay (reference value: 3.5 10^7 CFU/ml)", "format": "functional"}, "[27]": {"system": "Escherichia coli", "assay": "Antibacterial activity against drug-resistant Escherichia coli after 24 hrs by micro broth dilution method", "format": "functional"}, "[28]": {"system": "Pseudomonas aeruginosa", "assay": "Potency index, ratio of norfloxacin MIC to compound MIC for Pseudomonas aeruginosa ATCC 27853", "format": "functional"}, "[29]": {"system": "DNA", "assay": "Induction of sensitive Pseudomonas aeruginosa DNA cleavage at 75 uM by ethidium bromide staining-based agarose gel electrophoresis", "format": "nucleic-acid assay"}, "[30]": {"target": "T1, Albumin", "assay": "Binding affinity to HSA assessed as modified Stern-Volmer quenching constant at pH 7.4 at 300 K by fluorescence assay", "format": "ADME", "settings": "isolated protein"}, "[31]": {"target": "T1, Albumin", "assay": "Binding affinity to HSA assessed as modified Stern-Volmer quenching constant at pH 7.4 at 313 K by fluorescence assay", "format": "ADME", "settings": "isolated protein"}, "[32]": {"system": "Staphylococcus aureus", "assay": "Antibacterial activity against Staphylococcus aureus ATCC 29213 after 24 hrs by micro broth dilution method", "format": "functional", "settings": "ATCC 29213, 24 h"}, "[33]": {"system": "Pseudomonas aeruginosa", "assay": "Bactericidal activity against drug sensitive Pseudomonas aeruginosa assessed as bacterial load at 4 times MIC after 270 mins by time-kill assay (reference value: 1.8 10^10 CFU/ml)", "format": "functional"}, "[34]": {"system": "Pseudomonas aeruginosa", "assay": "Bactericidal activity against drug sensitive Pseudomonas aeruginosa assessed as bacterial load at 4 times MIC after 120 mins by time-kill assay (reference value: 9.3 10^5 CFU/ml)", "format": "functional"}, "[35]": {"target": "T1, Albumin", "assay": "Binding affinity to HSA assessed as Stern-Volmer quenching constant at pH 7.4 at 300 K by fluorescence assay", "format": "ADME", "settings": "isolated protein"}}, "note": "The source made the active and inactive calls. The calls are words filed in the database; no cut-off is given here.", "data": [{"smiles": "COc1cc(/C=C(\\C(C)O)n2c([N+](=O)[O-])cnc2C)ccc1O", "note": "(stereo not given)", "values": [{"measurement": "MIC", "setting": "[1]", "result": 400, "unit": "µM"}, {"measurement": "KSV", "setting": "[2]", "result": 82200, "unit": "M⁻¹"}, {"measurement": "Kq", "setting": "[3]", "result": 9.56, "unit": "×10¹³ L/mol/s"}, {"measurement": "MIC", "setting": "[4]", "result": 32, "unit": "µg/mL"}, {"measurement": "Kq", "setting": "[5]", "result": 1.18, "unit": "×10¹³ L/mol/s"}, {"measurement": "MIC", "setting": "[6]", "result": 400, "unit": "µM"}, {"measurement": "Kq", "setting": "[7]", "result": 7.79, "unit": "×10¹³ L/mol/s"}, {"measurement": "MIC", "setting": "[8]", "result": 1600, "unit": "µM"}, {"measurement": "MIC", "setting": "[9]", "result": 128, "unit": "µg/mL"}, {"measurement": "MIC", "setting": "[10]", "result": 256, "unit": "µg/mL"}, {"measurement": "Activity", "setting": "[11]", "result": "Active"}, {"measurement": "MIC", "setting": "[12]", "result": 100, "unit": "µM"}, {"measurement": "K", "setting": "[13]", "result": 1.83, "unit": "×10⁴ L/mol"}, {"measurement": "MIC", "setting": "[14]", "result": 800, "unit": "µM"}, {"measurement": "Activity", "setting": "[15]", "result": 87, "unit": "CFU/ml"}, {"measurement": "Kb", "setting": "[16]", "result": 4.83, "unit": "×10⁴ L/mol"}, {"measurement": "Activity", "setting": "[17]", "result": 3, "unit": "×10³ CFU/ml"}, {"measurement": "Ratio", "setting": "[18]", "result": 4}, {"measurement": "Kb", "setting": "[19]", "result": 4.77, "unit": "×10⁴ L/mol"}, {"measurement": "Kb", "setting": "[20]", "result": 4.77, "unit": "×10⁴ L/mol"}, {"measurement": "Activity", "setting": "[21]", "result": 72, "unit": "CFU/ml"}, {"measurement": "KSV", "setting": "[22]", "result": 4.99, "unit": "×10⁴ L/mol"}, {"measurement": "KSV", "setting": "[23]", "result": 7.54, "unit": "×10⁴ L/mol"}, {"measurement": "MIC", "setting": "[24]", "result": 1600, "unit": "µM"}, {"measurement": "Activity", "setting": "[25]", "result": ">3.5", "unit": "log10CFU/ml"}, {"measurement": "Activity", "setting": "[26]", "result": 1.5, "unit": "×10² CFU/ml"}, {"measurement": "MIC", "setting": "[27]", "result": 1600, "unit": "µM"}, {"measurement": "Ratio", "setting": "[28]", "result": "4 - 16"}, {"measurement": "Activity", "setting": "[29]", "result": "Active"}, {"measurement": "KSV", "setting": "[30]", "result": 61800, "unit": "M⁻¹"}, {"measurement": "KSV", "setting": "[31]", "result": 47400, "unit": "M⁻¹"}, {"measurement": "MIC", "setting": "[32]", "result": 800, "unit": "µM"}, {"measurement": "Activity", "setting": "[33]", "result": 65, "unit": "CFU/ml"}, {"measurement": "Activity", "setting": "[34]", "result": 9.3, "unit": "×10⁶ CFU/ml"}, {"measurement": "KSV", "setting": "[35]", "result": 6.12, "unit": "×10⁴ L/mol"}]}]}
